Experimental data published in patent US8703956B2, “Amorphous (5-fluoro-2-methyl-3-quinolin-2-ylmethyl-indol-1-yl)-acetic acid” (Atopix Therapeutics Limited, priority 2011, dated 2014).
≈ marks a conversion by molar mass, not a printed value. Where a name gives a salt, the structure may show the parent alone. Read-outs that look alike come from different tables or passages of the source. Each block holds one molecule with its values, some of them ahead of it.

Tests used:
[1] = Solubility in aqueous solutions (Example 10); type: physicochemical; conditions: for Solubility in water: Table 12; for solubility: thermodynamic from solid, read-out: Compound 1 Solubility; for Increase in water solubility: relative to Compound 1 as-received (0.0006 mg/mL)
Protocol: Crystalline and amorphous Compound 1/polymer formulation solubility was determined in different aqueous media (Tables 8A and 8B).
As mentioned earlier, the high solubility of the Compound 1 sodium salt most probably resulted from the conversion of the Compound 1 to its ionized form. In relation to crystalline Compound 1 (as-received sample), formulations containing amorphous form (Tables 11A and 11B) were more soluble than crystalline form under all studied conditions.

[2] = Solubility screening in solvents (Example 2); type: physicochemical; conditions: thermodynamic from solid, read-out: Compound 1 Solubility; for solubility at 12 h: 12 h room temperature
Protocol: Before carrying out spray drying experiments, a solvent screening was performed to determine potential solvent that will allow sufficient concentration of Compound 1 in spray drying solution. Approximately 50 mg of Compound 1 was added to 100 mL of each evaluated solvent until visual observation of solution saturation. […]

[3] = Solubility in USP simulated gastric and intestinal fluids (Example 11); type: physicochemical; conditions: SGF pH 1.2 and SIF pH 6.8, 37° C.
Protocol: The solubilization profile was obtained of various compositions in USP Simulated Gastric Fluid (SGF) and USP Simulated Intestinal Fluid (SIF) with pH 1.2 and 6.8, respectively. […] The concentration of the solution was based on the hypothesis that the test should simulate a dissolution test for a 100 mg dose strength tablet or capsule in 900 ml of dissolution media.
The solubility was tested for the crystalline compound 1 with a purity of 98.9%, and for the amorphous compositions of Examples 6M and 6O (Lots 031 and 033). The following procedure was followed: • A shaking water bath was filled and water temperature left to equilibrate to 37° C. for 24 hours. • USP simulated gastric fluid was prepared as described in the UPS 31, Solutions: Test solutions. • USP simulated intestinal fluid was prepared as described in the UPS 31, Solutions: Test solutions. • The equivalent of 12.5 mg of Compound 1 was weighed and transferred into a 125 mL Erlenmeyer flask, with 100 mL of medium. […]
The amount of dissolved material was determined with respect to a standard and is reported as the percentage of material dissolved with respect to the standard as well as in absolute mg/ml.

[4] = tested on: moderate persistent asthma; conditions: Barnes et al., European Respiratory Journal 34, suppl. 53, 2009; cited from earlier work
animal models of asthma = conditions: in vivo; cited from earlier work

- Solubility in water [1]: 15370 µg/mL
- Compound 1 Solubility ([1]; Water): 15370 µg/mL
- solubility ([1]; Water + 1% SDS, aqueous with cosolvent or surfactant or cyclodextrin, Water + 1% SDS): > 30000 µg/mL
- solubility ([1]; Water + 1% Tween 20, aqueous with cosolvent or surfactant or cyclodextrin, Water + 1% Tween 20): > 26000 µg/mL
- solubility ([1]; Water + 1% Tween 80, aqueous with cosolvent or surfactant or cyclodextrin, Water + 1% Tween 80): > 21000 µg/mL
- Compound 1 Solubility ([1]; pH 1.0): 3.6 µg/mL
- Compound 1 Solubility ([1]; pH 4.5): 2605 µg/mL
- solubility ([1]; pH 6.8 + 1% HTAB, pH 6.8, aqueous with cosolvent or surfactant or cyclodextrin, pH 6.8 + 1% HTAB): 4110 µg/mL
- solubility ([1]; pH 6.8 + 1% Tween 20, pH 6.8, aqueous with cosolvent or surfactant or cyclodextrin, pH 6.8 + 1% Tween 20): 128 µg/mL
- solubility ([1]; pH 6.8 + 1% Tween 80, pH 6.8, aqueous with cosolvent or surfactant or cyclodextrin, pH 6.8 + 1% Tween 80): 3220 µg/mL
- Compound 1 Solubility ([1]; pH 6.8 K): 8554 µg/mL
- solubility ([1]; pH 6.8 Na (sodium buffer), pH 6.8, aqueous buffer, pH 6.8 Na): 2490 µg/mL
- Compound 1 Solubility ([1]; pH 8.0 K): 5571 µg/mL
- Compound 1 Solubility ([1]; pH 8.0 Na): 1744 µg/mL
- Increase in water solubility [1]: 2561667%
SMILES: Cc1c(Cc2ccc3ccccc3n2)c2cc(F)ccc2n1CC(=O)O [Compound 1 sodium salt]

- solubility ([2]; aqueous buffer, Sodium hydroxide 0.5N, at 45° C.): > 90000 µg/mL
- solubility at 12 h ([2]; aqueous buffer, Tris(hydroxymethyl) aminoethane (1% w/v)): < 500 µg/mL
- solubility at 12 h ([2]; aqueous with cosolvent or surfactant or cyclodextrin, DMSO/H2O (50/50 v/v)): < 500 µg/mL
- solubility at 12 h ([2]; aqueous with cosolvent or surfactant or cyclodextrin, DMSO/H2O (75/25 v/v)): 2000 to 2500 µg/mL (≈ 5740 to 7180 µM)
- solubility at 12 h ([2]; aqueous with cosolvent or surfactant or cyclodextrin, Hexadecyltrimethylammonium (0.05% w/v)): < 500 µg/mL
- solubility at 12 h ([2]; aqueous with cosolvent or surfactant or cyclodextrin, Sodium dodecyl sulfate (2% w/v)): < 500 µg/mL
- solubility at 12 h ([2]; aqueous with cosolvent or surfactant or cyclodextrin, Span 80 (1% v/v)): < 500 µg/mL
- solubility at 12 h ([2]; aqueous with cosolvent or surfactant or cyclodextrin, Tween 80 (1% v/v)): < 500 µg/mL
- solubility at 12 h ([2]; organic solvent or mixture, Carbon tetrachloride): < 500 µg/mL
- solubility at 12 h ([2]; organic solvent or mixture, Chloroform): < 500 µg/mL
- solubility at 12 h ([2]; organic solvent or mixture, DMSO/DCM (50/50 v/v)): 1000 to 1500 µg/mL (≈ 2870 to 4310 µM)
- solubility at 12 h ([2]; organic solvent or mixture, DMSO/DCM (75/25 v/v)): 2500 to 3000 µg/mL (≈ 7180 to 8610 µM)
- solubility at 12 h ([2]; organic solvent or mixture, DMSO/Ethanol (50/50 v/v)): 500 to 1000 µg/mL (≈ 1440 to 2870 µM)
- solubility at 12 h ([2]; organic solvent or mixture, DMSO/Ethanol (75/25 v/v)): 500 to 1000 µg/mL (≈ 1440 to 2870 µM)
- solubility at 12 h ([2]; organic solvent or mixture, Dichloromethane (DCM)): < 500 µg/mL
- solubility at 12 h ([2]; organic solvent or mixture, Dimethyl sulfoxide (DMSO)): 5500 to 6000 µg/mL (≈ 15800 to 17200 µM)
- solubility at 12 h ([2]; organic solvent or mixture, Toluene): < 500 µg/mL
- solubility at 12 h ([2]; Purified water): < 500 µg/mL
- solubility in SGF and SIF [3]: very poor solubility
- Solubility in water [1]: 0.6 µg/mL (≈ 1.72 µM)
- Compound 1 Solubility ([1]; Water): 0.6 µg/mL
- solubility ([1]; aqueous medium pH 1.0, pH 1, simulated gastric fluid, pH 1.0): 2.1 µg/mL (≈ 6.03 µM)
- Compound 1 Solubility ([1]; pH 4.5): 1.9 µg/mL
- Compound 1 Solubility ([1]; pH 6.8 K): 0.3 µg/mL
- Compound 1 Solubility ([1]; pH 8.0 K): 0.8 µg/mL
- Compound 1 Solubility ([1]; pH 8.0 Na): 0.3 µg/mL
SMILES: Cc1c(Cc2ccc3ccccc3n2)c2cc(F)ccc2n1CC(=O)O [Compound 1, (5-Fluoro-2-methyl-3-quinolin-2-ylmethyl-indol-1-yl)-acetic acid]
- efficacy in a clinical trial with human asthma patients [4]: effective
- efficacy in animal models of asthma (animal models of asthma): effective

- Solubility in water [1]: 16870 µg/mL
- Compound 1 Solubility ([1]; Water): 16870 µg/mL
- Compound 1 Solubility ([1]; Water + 1% SDS): >17000 µg/mL
- Compound 1 Solubility ([1]; Water + 1% Tween 20): >22000 µg/mL
- Compound 1 Solubility ([1]; Water + 1% Tween 80): >14000 µg/mL
- Compound 1 Solubility ([1]; pH 1.0): 9.1 µg/mL
- Compound 1 Solubility ([1]; pH 4.5): 5 µg/mL
- Compound 1 Solubility ([1]; pH 6.8 + 1% HTAB): 3597 µg/mL
- Compound 1 Solubility ([1]; pH 6.8 + 1% Tween 20): 162.3 µg/mL
- Compound 1 Solubility ([1]; pH 6.8 + 1% Tween 80): 226 µg/mL
- Compound 1 Solubility ([1]; pH 6.8 K): 0.2 µg/mL
- Compound 1 Solubility ([1]; pH 6.8 Na): 0.6 µg/mL
- Compound 1 Solubility ([1]; pH 8.0 K): 2740 µg/mL
- Compound 1 Solubility ([1]; pH 8.0 Na): 1782 µg/mL
- Increase in water solubility [1]: 2811667%
SMILES: Cc1c(Cc2ccc3ccccc3n2)c2cc(F)ccc2n1CC(=O)[O-].[Na+] [Lot 002]
